Ends that are not written are not given here. Peptide text beside a SMILES is read from it.
Experiments:
Format in all cases: cell-based, human
μHF = experiment: Cytotoxicity testing on μHF, viability by ATP (CellTiter Glo); settings: for Mean ATP content in μHF after 24 H treatment: N = 5 μHF, CN 1306.1; for ATP content relative to threshold (50% of negative control): 1-10-100 ng/ml, 24 h
Protocol: Cytotoxicity testing has been performed on μHF at day 3 in order to select the testing concentration of peptides for the following screening assays.
Treatments: Negative control: 1 (not treated), Positive control: FGF18 100 ng/ml, Treatments: 39 (13 peptides, 3 concentrations each: 1-10-100 ng/ml), Biological replicates: 5 μHF for each treatment, Time-point: 1 (after 24 H of treatment), Read-out parameters: Viability by ATP
The test items have been tested at 3 concentrations/each for their cytotoxicity potential after 24 h exposure on μHF. FGF18 100 ng/ml have been used as positive control. The toxicity has been evaluated by ATP release on n=5 μHF.
The μHF microtissue were reconstructed using the hanging drop method into GRAVITY^PLUS plates from InSphero (Switzerland) using fibroblasts and keratinocytes from human origin. The MTs were Transferred in GRAVITYTRAP for treatments and manipulation. Culture conditions: incubator at 37° C., 5% CO2, saturated humidity with adequate culture medium. The Fibroblast batch and keratinocytes has been tested for the absence of HIV, Hepatitis B, Hepatitis C, Mycoplasma. The maintenance medium has been tested for sterility.
The kit CellTiter Glo® (Promega) Luminescent cell Viability Assay is used for Adenosine-5- triphosphate (ATP) quantification. The assay procedures involves adding the single reagent directly to MTs cultured in medium. The cell lysis and the generation of a luminescent signal is proportional to the amount of ATP present. ATP measurements have been performed on 5 biological replicates and mean and standard deviation have been calculated. The threshold of 50% viability in comparison to negative control have been used as cut off; the max concentration possible over threshold has been used for the efficacy screening test.
For the selection of test concentrations of each peptide, the 50% ATP content in comparison with negative (not treated) control has been selected as threshold. The higher concentration over the selected threshold has been used for efficacy screening test for peptides form P1 to P9.

CCND1 = experiment: Regressive μHF efficacy screening: CCND1 gene expression by RTqPCR
Source text: (§1) To assess the biological activity of the identified set of 13 peptides and their capability to maintain quiescence state, the Vitroscreen μHF standard model has been adapted pushing it in a regressive state (catagen-like) by the application of TGFβ1 to reduce the expression of genes linked to active growth phase (anagen) and to make the model more responsive to FGF18 as quiescence signal.
(§2) In particular, in this regressive model, the application of TGFβ1 to 72H induces a catagen-like status with the down-regulation of FGF7 anagen gene and CCND1 as proliferation marker. […]
(§3) After the selection of test concentrations of the peptides, efficacy was performed on regressing μHF (TGFβ1 treated) at day 5 in order to evaluate the further efficacy of peptides to decrease the gene expression of proliferation (CCND1) and anagen marker (FGF7). The potential down-regulation of epithelial growth regulator WNT5B has been evaluated as an optional parameter.
(§4) Treatments: Negative control: 1 (not treated), Regression inducer: TGFβ1 10 ng/ml, Positive control: FGF18 10-100 ng/ml, Treatments: 13 peptides (1 concentration each), Biological replicates: 1 biological replicates from pool of 20 μHF, Time-point: after 72H of TGFβ1 induction followed by 24H of peptide or FGF18 application, Read-out parameters: 1 Proliferation gene (CCND1) by RTqPCR, 2 anagen regulators (FGF7, WNT5B) by RTqPCR […]

FGF7 = experiment: Regressive μHF efficacy screening: FGF7 gene expression by RTqPCR
Source text: as §1, §2, §3, §4

WNT5B = experiment: Regressive μHF efficacy screening: WNT5B gene expression by RTqPCR; settings: FGF18 100 ng/ml, after TGFβ1 10 ng/ml 72H
Source text: as §1, §2, §3, §4

regressive μHF = experiment: Overall efficacy in mimicking FGF18 in regressive μHF (CCND1, FGF7, WNT5B together); settings: FGF18 10-100 ng/ml, after TGFβ1
Source text: as §1, §2
The μHF model has been used for a screening study with the aim to characterize the 13 peptides designed on the basis of FGF18 structure in order to mimic its biological function in retarding hair growth. The following test items have been evaluated after the selection of test concentration in a preliminary tox assay.
After the selection of test concentrations of the peptides, efficacy was performed on regressing μHF (TGFβ1 treated) at day 5 in order to evaluate the further efficacy of peptides to decrease the gene expression of proliferation (CCND1) and anagen marker (FGF7). The potential down-regulation of epithelial growth regulator WNT5B has been evaluated as an optional parameter. […]

[1] = FGF18 100 ng/ml, after TGFβ1 10 ng/ml 72H

| Compound | Mean ATP content in μHF after 24 H treatment (μHF; 1 ng/ml) | Mean ATP content in μHF after 24 H treatment (μHF; 10 ng/ml) | Mean ATP content in μHF after 24 H treatment (μHF; 100 ng/ml) | further results |
| --- | --- | --- | --- | --- |
| CC(C)C[C@H](NC(=O)[C@H](CCC(N)=O)NC(=O)[C@@H](N)CCCCN)C(=O)N[C@@H](CCCNC(=N)N)C(=O)O [Peptide P1, KQLR] (H-KQLR-OH; N-terminus and C-terminus assumed) | 1876.5 nM | 2007.2 nM | 1903.1 nM | – |
| CC(C)C[C@H](NC(=O)[C@H](CCCNC(=N)N)NC(=O)[C@@H](N)CC(=O)O)C(=O)N[C@@H](CCCCN)C(=O)O [Peptide P3, DRLK] (H-DRLK-OH; N-terminus and C-terminus assumed) | 1026.2 nM | 924.8 nM | 1631.2 nM | – |
| C[C@@H](O)[C@H](NC(=O)[C@H](CCCCN)NC(=O)[C@@H](N)CCC(=O)O)C(=O)N[C@@H](CC(=O)O)C(=O)O [Peptide P4, EKTD] (H-EKTD-OH; N-terminus and C-terminus assumed) | 1567.7 nM | 1715.2 nM | 1597.4 nM | – |
| NCCCC[C@H](NC(=O)[C@@H](N)CCC(=O)O)C(=O)N[C@@H](CC(=O)O)C(=O)N[C@@H](CC(=O)O)C(=O)O [Peptide P5, EKDD] (H-EKDD-OH; N-terminus and C-terminus assumed) | 1263.3 nM | 1108.9 nM | 1255.5 nM | – |
| C[C@@H](O)[C@H](NC(=O)[C@H](CCCNC(=N)N)NC(=O)[C@@H](N)CCCCN)C(=O)NCC(=O)O [Peptide P6, KRTG] (H-KRTG-OH; N-terminus and C-terminus assumed) | 1122.0 nM | 1116.0 nM | 1313.3 nM | – |
| NCCCC[C@H](NC(=O)[C@@H](N)CCC(=O)O)C(=O)N[C@@H](CC(N)=O)C(=O)N[C@@H](CC(=O)O)C(=O)O [Peptide P7, EKND] (H-EKND-OH; N-terminus and C-terminus assumed) | 1275.4 nM | 1243.9 nM | 1258.8 nM | – |
| N=C(N)NCCC[C@H](NC(=O)[C@@H](N)CC(=O)O)C(=O)N[C@@H](CC(=O)O)C(=O)N[C@@H](CCC(=O)O)C(=O)O [Peptide P8, DRDE] (H-DRDE-OH; N-terminus and C-terminus assumed) | 1148.5 nM | 1155.5 nM | 1229.3 nM | – |
| NCCCC[C@H](NC(=O)[C@@H](N)CC(=O)O)C(=O)N[C@@H](CO)C(=O)N[C@@H](CCC(=O)O)C(=O)O [Peptide P9, DKSE] (H-DKSE-OH; N-terminus and C-terminus assumed) | 1521.4 nM | 1273.6 nM | 1469.4 nM | – |
| CC(C)[C@H](NC(=O)[C@H](CCCNC(=N)N)NC(=O)[C@@H](N)CC(=O)O)C(=O)N[C@@H](CCC(=O)O)C(=O)O [Peptide P10, DRVE] (H-DRVE-OH; N-terminus and C-terminus assumed) | 1727.8 nM | 1706.1 nM | 1329.1 nM | ATP content relative to threshold (50% of negative control) (μHF): over the threshold |
| C[C@@H](O)[C@H](NC(=O)[C@H](CCCNC(=N)N)NC(=O)[C@@H](N)CC(=O)O)C(=O)N[C@@H](CC(=O)O)C(=O)O [Peptide P11, DRTD] (H-DRTD-OH; N-terminus and C-terminus assumed) | 463.1 nM | 447.0 nM | 149.0 nM | ATP content relative to threshold (50% of negative control) (μHF): under-threshold |
| CC[C@H](C)[C@H](N)C(=O)N[C@@H](CCC(=O)O)C(=O)N[C@@H](CCCCN)C(=O)N[C@H](C(=O)O)C(C)C [Peptide P12, IEKV] (H-IEKV-OH; N-terminus and C-terminus assumed) | 435.7 nM | 562.8 nM | 370.0 nM | ATP content relative to threshold (50% of negative control) (μHF): under-threshold |
| CC(C)[C@H](NC(=O)[C@H](CCCNC(=N)N)NC(=O)[C@@H](N)CC(=O)O)C(=O)O [Peptide P13, DRV] (H-Asp-Arg-Val-OH) | 576.0 nM | 516.6 nM | 404.1 nM | ATP content relative to threshold (50% of negative control) (μHF): under-threshold |
| Fibroblast Growth Factor 18 [FGF18] | – | – | 1560.3 nM | Effect on CCND1 expression after TGFβ1 (CCND1; [1]): further down-regulation; Effect on FGF7 expression after TGFβ1 (FGF7; [1]): further down-regulation; Effect on WNT5b expression after TGFβ1 (WNT5B): decrease; Effect in enhancing the down regulation of anagen markers (regressive μHF): dose-dependent effect |
| RTGQYK [Peptide P2, RTGQYK] | 1522.4 nM | 1838.6 nM | 1687.8 nM | – |
| Transforming Growth Factor Beta 1 [TGFβ1] | – | – | – | Effect on expression of CCND1 versus CN (CCND1; TGFβ1 10 ng/ml, 72H): reduced; Effect on expression of FGF7 versus CN (FGF7; TGFβ1 10 ng/ml, 72H): reduced |

From patent publication US12139555B2, “Peptides and compositions for inhibiting hair growth” (RODAN & FIELDS, LLC, priority 2019, dated 2024)
